From patent US20250171438A1 (Agios Pharmaceuticals, Inc., priority 2022, published 2025)

molecular target: T1, human PAH with the R408W mutation (Homo sapiens, UniProt P00439, R408W); experiment: Cell Based Phenylalanine Flux Assay; parameters: scale not given here; settings: A375 cells expressing human R408W PAH; 24 hrs with compound; 13C-Tyrosine by LC-MS; average where tested multiple times
T1 construct: expressed in transfected cells
T1 sequence (P00439 1-452 R408W): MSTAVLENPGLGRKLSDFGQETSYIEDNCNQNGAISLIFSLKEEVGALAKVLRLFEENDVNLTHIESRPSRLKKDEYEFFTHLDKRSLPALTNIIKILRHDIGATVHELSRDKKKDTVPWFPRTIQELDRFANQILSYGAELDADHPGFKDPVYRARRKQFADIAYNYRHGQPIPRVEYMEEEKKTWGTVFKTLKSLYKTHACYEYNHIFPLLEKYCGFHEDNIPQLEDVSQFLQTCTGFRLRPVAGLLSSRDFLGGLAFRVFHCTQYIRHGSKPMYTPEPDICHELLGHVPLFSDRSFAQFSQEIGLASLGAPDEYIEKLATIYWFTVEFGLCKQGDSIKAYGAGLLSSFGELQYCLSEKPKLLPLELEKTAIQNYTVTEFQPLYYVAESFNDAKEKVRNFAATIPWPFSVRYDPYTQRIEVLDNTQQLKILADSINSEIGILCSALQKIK

Row | AC50 | SMILES
1 | E, E | O=C(c1c(C(F)(F)F)nn2ccccc12)N1CCc2[nH]cnc2C1c1nc2ccccc2s1 (stereo not drawn)
2 | E, E | NC(=O)c1nc(-c2ccccn2)oc1C(=O)N1CCc2[nH]cnc2C1c1nc2ccccc2s1 (stereo not drawn)
3 | E, E | O=C(CCC1CC1)N1CCc2[nH]cnc2C1c1nc2ccccc2[nH]1 (stereo not drawn)
4 | E, E | Cn1cc(C(C)(C)C(=O)N2CCc3[nH]cnc3C2c2nc3ccccc3s2)cn1 (stereo not drawn)
5 | E, E | NC(=O)Cn1cc(C(=O)N2CCc3[nH]cnc3C2c2nc3c(F)cccc3s2)c(Cl)n1 (stereo not drawn)
6 | E, E | Fc1ccc2nc(N3CCc4[nH]cnc4C3c3nc4ccccc4s3)oc2c1 (stereo not drawn)
7 | E, E | COCCc1ccc2c(C(=O)N3CCc4[nH]cnc4C3c3nc4ccccc4s3)c(C(F)F)nn2c1 (stereo not drawn)
8 | E, E | O=C(c1c(C(F)(F)F)nn2c1CCCC2)N1CCc2[nH]cnc2C1c1nc2ccccc2s1 (stereo not drawn)
9 | E, E | Cc1nc(C(F)(F)F)c(C(=O)N2CCc3nc[nH]c3C2c2nc3ccccc3s2)o1 (stereo not drawn)
10 | E, E | COCCc1ccc2c(C(=O)N3CCc4[nH]cnc4C3c3nc4ccccc4s3)c(C(F)(F)F)nn2c1 (stereo not drawn)
11 | E, E | NC(=O)N1CC(C(=O)N2CCc3[nH]cnc3C2c2nc3ccccc3s2)C1 (stereo not drawn)
12 | E, E | CN(C)CCc1nc(C#N)c(C(=O)N2CCc3[nH]cnc3C2c2nc3ccccc3s2)o1 (stereo not drawn)
13 | E, E | CN1CCN(c2nc(C#N)c(C(=O)N3CCc4[nH]cnc4C3c3nc4ccccc4s3)o2)CC1 (stereo not drawn)
14 | E, E | O=C(c1nnc(CCCNC2CC2)o1)N1CCc2[nH]cnc2C1c1nc2ccccc2s1 (stereo not drawn)
15 | E, E | O=C(c1ocnc1C(F)F)N1CCc2[nH]cnc2C1c1nc2ccccc2[nH]1 (stereo not drawn)
16 | E, E | CC(C)(O)c1nc(C(F)F)c(C(=O)N2CCc3[nH]cnc3C2c2nc3ccccc3[nH]2)o1 (stereo not drawn)
17 | E, E | O=C(c1oc(-c2ccccn2)nc1C(F)(F)F)N1CCc2[nH]cnc2C1c1nc2ccccc2s1 (stereo not drawn)
18 | E, E | CC(C)(O)CCc1nc(C(F)(F)F)c(C(=O)N2CCc3[nH]cnc3C2c2nc3ccccc3s2)o1 (stereo not drawn)
19 | E, E | O=C(c1c(C(F)F)nn2cc(Br)ccc12)N1CCc2[nH]cnc2C1c1nc2ccccc2s1 (stereo not drawn)
20 | E, E | CN(C)Cc1nc(C(F)(F)F)c(C(=O)N2CCc3[nH]cnc3C2c2nc3ccccc3s2)o1 (stereo not drawn)
21 | E, E | Cn1cc(-c2nc(C(F)(F)F)c(C(=O)N3CCc4[nH]cnc4C3c3nc4ccccc4s3)o2)cn1 (stereo not drawn)
22 | E, E | COCc1ccc2c(C(=O)N3CCc4[nH]cnc4C3c3nc4ccccc4s3)c(C(F)F)nn2c1 (stereo not drawn)

same assay, conditions: A375 cells expressing human R408W PAH; 24 hrs with compound; 13C-Tyrosine by LC-MS; average where tested multiple times; read-out: AC50

Row | SMILES | AC50 [µM]
23 | O=C(Cc1noc2ccccc12)N1CCc2[nH]cnc2C1c1nc2ccccc2[nH]1 (stereo not drawn) [listing 1 of 2 here] | > 5
24 | O=C(c1nc2ccccc2s1)N1CCc2[nH]cnc2C1c1nc2ccccc2[nH]1 (stereo not drawn) [listing 1 of 2 here] | > 5
25 | O=C(c1ccc2ncsc2c1)N1CCc2[nH]cnc2C1c1nc2ccccc2[nH]1 (stereo not drawn) [listing 1 of 2 here] | > 5
26 | O=C(c1ncc[nH]1)N1CCc2[nH]cnc2C1c1nc2ccccc2[nH]1 (stereo not drawn) [listing 1 of 2 here] | > 5
27 | O=C(c1nncs1)N1CCc2[nH]cnc2C1c1nc2ccccc2[nH]1 (stereo not drawn) | > 5
28 | O=C(Cc1noc2ccccc12)N1CCc2[nH]cnc2C1c1nc2ccccc2[nH]1 (stereo not drawn) [listing 2 of 2 here] | 1 to 5
29 | O=C(CCc1nccs1)N1CCc2nc[nH]c2C1c1nc2cccc(Cl)c2[nH]1 (stereo not drawn) | 1 to 5
30 | c1ccc2[nH]c(C3c4nc[nH]c4CCN3CCCc3nccs3)nc2c1 (stereo not drawn) | 1 to 5
31 | O=C(c1cnc[nH]1)N1CCc2[nH]cnc2C1c1nc2ccccc2[nH]1 (stereo not drawn) | > 5
32 | O=C(c1nc2ccccc2s1)N1CCc2[nH]cnc2C1c1nc2ccccc2[nH]1 (stereo not drawn) [listing 2 of 2 here] | 1 to 5
33 | O=C(c1nc2ccncc2s1)N1CCc2[nH]cnc2C1c1nc2ccccc2[nH]1 (stereo not drawn) | > 5
34 | O=C(c1ncn2ccccc12)N1CCc2[nH]cnc2C1c1nc2ccccc2[nH]1 (stereo not drawn) | > 5
35 | O=C(c1ccc2ncsc2c1)N1CCc2[nH]cnc2C1c1nc2ccccc2[nH]1 (stereo not drawn) [listing 2 of 2 here] | 1 to 5
36 | O=C(c1ncc[nH]1)N1CCc2[nH]cnc2C1c1nc2ccccc2[nH]1 (stereo not drawn) [listing 2 of 2 here] | 1 to 5
37 | O=C(c1ccc(F)cc1)N1CCc2[nH]cnc2C1c1nc2ccccc2[nH]1 (stereo not drawn) | 1 to 5
38 | O=C(C=Cc1ccccc1)N1CCc2[nH]cnc2C1c1nc2ccccc2[nH]1 (stereo not drawn) | 1 to 5
39 | O=C(c1nc2ccccc2s1)N1CCc2[nH]cnc2C1c1nc2ccc(Br)cc2[nH]1 (stereo not drawn) | 1 to 5

The next lines start with the values.

Row | AC50 [µM] | SMILES
40 | > 5 | O=C(CCc1ccc(F)cc1)N1CCc2[nH]cnc2C1c1nc2ccccc2[nH]1 (stereo not drawn) [listing 1 of 2 here]
41 | > 5 | O=C(CCc1cccs1)N1CCc2[nH]cnc2C1c1nc2ccccc2[nH]1 (stereo not drawn) [listing 1 of 2 here]
42 | > 5 | O=C(CCc1nc2ccccc2o1)N1CCc2[nH]cnc2C1c1nc2ccccc2[nH]1 (stereo not drawn) [listing 1 of 2 here]
43 | > 5 | Cc1nnc(CCC(=O)N2CCc3[nH]cnc3C2c2nc3ccc(Br)cc3[nH]2)s1 (stereo not drawn) [listing 1 of 2 here]
44 | > 5 | Cc1nnc(CCC(=O)N2CCc3[nH]cnc3C2c2nc3ccc(Cl)cc3[nH]2)s1 (stereo not drawn) [listing 1 of 2 here]
45 | > 5 | Cc1nnc(C(=O)N2CCc3[nH]cnc3C2c2nc3ccccc3[nH]2)s1 (stereo not drawn) [listing 1 of 2 here]
46 | > 5 | O=C(c1cnn2cc(Cl)ccc12)N1CCc2[nH]cnc2C1c1nc2ccccc2[nH]1 (stereo not drawn) [listing 1 of 2 here]
47 | 1 to 5 | O=C(c1cnn2ccc(Br)cc12)N1CCc2[nH]cnc2C1c1nc2ccc(Cl)cc2[nH]1 (stereo not drawn)
48 | > 5 | COc1cccc(C=CC(=O)N2CCc3[nH]cnc3C2c2nc3ccccc3[nH]2)c1 (stereo not drawn) [listing 1 of 2 here]
49 | > 5 | O=C(c1nc2ccccc2s1)N1CCc2[nH]cnc2C1c1nc2ccc(Cl)cc2[nH]1 (stereo not drawn) [listing 1 of 2 here]
50 | 1 to 5 | COc1cccc(CCC(=O)N2CCc3[nH]cnc3C2c2nc3ccccc3[nH]2)c1 (stereo not drawn)
51 | 1 to 5 | O=C(Cc1nccs1)N1CCc2[nH]cnc2C1c1nc2ccccc2[nH]1 (stereo not drawn)
52 | 1 to 5 | O=C(CCc1cccs1)N1CCc2[nH]cnc2C1c1nc2ccccc2[nH]1 (stereo not drawn) [listing 2 of 2 here]
53 | > 5 | O=C(CCc1ccncc1)N1CCc2[nH]cnc2C1c1nc2ccccc2[nH]1 (stereo not drawn)
54 | 1 to 5 | O=C(CCc1nc2ccccc2o1)N1CCc2[nH]cnc2C1c1nc2ccccc2[nH]1 (stereo not drawn) [listing 2 of 2 here]
55 | 1 to 5 | O=C(CCc1ccc(F)cc1)N1CCc2[nH]cnc2C1c1nc2ccccc2[nH]1 (stereo not drawn) [listing 2 of 2 here]
56 | > 5 | Nc1nnc(CCC(=O)N2CCc3[nH]cnc3C2c2nc3ccccc3[nH]2)s1 (stereo not drawn)

Row | AC50 [µM] | SMILES
57 | > 5 | CC(=O)N1CCc2[nH]cnc2C1c1nc2ccccc2[nH]1 (stereo not drawn)
58 | 1 to 5 | Cc1nnc(CCC(=O)N2CCc3[nH]cnc3C2c2nc3ccccc3[nH]2)s1 (stereo not drawn)
59 | 1 to 5 | O=C(CCc1ccccc1)N1CCc2[nH]cnc2C1c1nc2ccccc2[nH]1 (stereo not drawn)
60 | 1 to 5 | O=C(Cc1nccs1)N1CCc2[nH]cnc2C1c1nc2ccc(Br)cc2[nH]1 (stereo not drawn)
61 | 1 to 5 | Cc1nnc(CCC(=O)N2CCc3[nH]cnc3C2c2nc3ccc(Br)cc3[nH]2)s1 (stereo not drawn) [listing 2 of 2 here]
62 | 1 to 5 | CC(C)(C)CCC(=O)N1CCc2[nH]cnc2C1c1nc2ccc(Cl)cc2[nH]1 (stereo not drawn)
63 | 1 to 5 | Cc1nnc(CCC(=O)N2CCc3[nH]cnc3C2c2nc3ccc(Cl)cc3[nH]2)s1 (stereo not drawn) [listing 2 of 2 here]
64 | 1 to 5 | O=C(CCc1nccs1)N1CCc2[nH]cnc2C1c1nc2ccc(F)cc2[nH]1 (stereo not drawn)
65 | > 5 | O=C(c1cn[nH]c1)N1CCc2[nH]cnc2C1c1nc2ccccc2[nH]1 (stereo not drawn)
66 | 1 to 5 | Cc1nnc(C(=O)N2CCc3[nH]cnc3C2c2nc3ccccc3[nH]2)s1 (stereo not drawn) [listing 2 of 2 here]
67 | 1 to 5 | O=C(c1cc[nH]n1)N1CCc2[nH]cnc2C1c1nc2ccccc2[nH]1 (stereo not drawn)
68 | 1 to 5 | O=C(c1cnn2cc(Cl)ccc12)N1CCc2[nH]cnc2C1c1nc2ccccc2[nH]1 (stereo not drawn) [listing 2 of 2 here]
69 | 1 to 5 | O=C(c1nccs1)N1CCc2[nH]cnc2C1c1nc2ccc(Cl)cc2[nH]1 (stereo not drawn)
70 | > 5 | O=C(c1ncc(Cl)s1)N1CCc2[nH]cnc2C1c1nc2ccc(Cl)cc2[nH]1 (stereo not drawn)
71 | 1 to 5 | COc1cccc(C=CC(=O)N2CCc3[nH]cnc3C2c2nc3ccccc3[nH]2)c1 (stereo not drawn) [listing 2 of 2 here]
72 | 1 to 5 | O=C(c1nc2ccccc2s1)N1CCc2[nH]cnc2C1c1nc2ccc(Cl)cc2[nH]1 (stereo not drawn) [listing 2 of 2 here]
